Where two headings read alike, the source gives them in different places.
What was measured:
[1] = Solubility in selected oil-based media; type: physicochemical; conditions: oil or lipid, read-out: Solubility, Concentration
[2] = Chemical stability in selected oil-based media; type: physicochemical
Method: Studies were performed over a 2 week period at −20° C., 2-8° C., 40° C./75% RH and 60° C. At the elevated temperatures, chemical stability was monitored in the presence and absence of argon. Additionally, the pH stability of the drug was assessed over a seven week period at 40° C./75% RH, pH 2, 3, 5, 7, 9, and 10. […] In oil-based media containing neat Capmul® MCM or phosphatidylcholine (Phospholipon® 90G, Phosal® 53 MCT), drug recovery was >99%. […] The degradation observed in Capmul® MCM was inhibited by the addition of argon.

[3] = Physical stability in selected oil-based media (visual); type: physicochemical
From the text: Physical stability of the drug was monitored visually.

[4] = in aqueous solvents and in most organic solvents; cited from earlier work

solubility ([1]; Capmul® MCM (oil-based medium), in Capmul ® MCM): 16600 µg/mL
solubility ([1]; Capmul® PG8 (oil-based medium), in Capmul ® PG8): 2010 µg/mL
solubility ([1]; Captex® 200 (oil-based medium), in Captex ® 200): 450 µg/mL
solubility ([1]; Captex® 300EP (oil-based medium), in Captex ® 300EP): 280 µg/mL
solubility ([1]; Captex® 355 (oil-based medium), in Captex ® 355): 520 µg/mL
solubility ([1]; Crodamol® (oil-based medium), in Crodamol ®): 450 µg/mL
solubility ([1]; Inwitor 742 (oil-based medium), in Inwitor 742): 7930 µg/mL
solubility ([1]; Labrafac® CC (oil-based medium), in Labrafac ® CC): 290 µg/mL
solubility ([1]; Labrafil® M 1944 CS (oil-based medium), in Labrafil ® M 1944 CS): 2340 µg/mL
solubility ([1]; Labrasol® (oil-based medium), in Labrasol ®): 29200 µg/mL
solubility ([1]; Maisine 35-I (oil-based medium), in Maisine 35-I): 1160 µg/mL
solubility ([1]; Miglyol® 132 (oil-based medium), in Miglyol ® 132): 800 µg/mL
solubility ([1]; Miglyol® 810N (oil-based medium), in Miglyol ® 810N): 380 µg/mL
solubility ([1]; Miglyol® 812N (oil-based medium), in Miglyol ® 812N): 7930 µg/mL
solubility ([1]; Peceol (oil-based medium), in Peceol): 3940 µg/mL
solubility ([1]; Phosal® 53 MCT (oil-based medium), in Phosal ® 53 MCT): 43400 µg/mL
solubility ([1]; in Corn Oil): 160 µg/mL
solubility ([1]; in Super-refined soybean oil): 40 µg/mL
Drug degradation ([2]; in Capmul® MCM at 60° C.): 7%
Effect of argon on degradation ([2]; in Capmul® MCM, addition of argon): inhibited
Drug degradation ([2]; in Phosal® 53 MCT at 60° C.): no drug degradation
Degradation of the drug ([2]; in the presence of Labrasol®, Capmul® MCM and Phospholipon® 90G, 40° C., 2-week period): little or no degradation
Physical stability (visual) ([3]; addition of 47% Capmul® MCM to oil-based media containing Phospholipon® 90G): inhibited solid formation
Physical stability (visual) ([3]; high concentrations of Capmul® (>80%)): solidification and cloudiness
Physical stability (visual) ([3]; warming then cooling compositions with more than 50% Phospholipon® 90G): formation of a fine suspension
SMILES: O=S(=O)(Nc1cc(Cl)c(Oc2cnc3ccccc3c2)c(Cl)c1)c1ccc(Cl)cc1Cl.O=S(=O)(O)c1ccccc1 [besylate salt of compound 101, 2,4-Dichloro-N-[3,5-dichloro-4-(quinolin-3-yloxy)-phenyl]-benzenesulfonamide benzenesulfonate salt]
Solubility in words [4]: sparingly soluble

— US20100087481A1, “ORAL PHARMACEUTICAL FORMULATIONS FOR ANTIDIABETIC COMPOUNDS” (priority 2008, published 2010)
